Results on 31 molecules are retold here after patent US20240327392A1, “HETEROCYCLOALKYL-SUBSTITUTED POLYHETEROAZOLE DERIVATIVES AS MEDICAMENTS FOR TREATING AND/OR PREVENTING RS VIRUS INFECTIONS” (ALBIUS SCIENCES ALPHA PRIVATE LIMITED, priority 2021, published 2024).

The subject of one assay is human RS virus A2 strain. Description: In vitro test for anti-RS virus proliferation inhibitory activity (quantitative RT-PCR of RS virus RNA copy number in infected Vero cells). Particulars: 72 h; Vero cells infected with human RS virus A2 strain, 3 days of incubation, RS virus N gene RNA copy number by quantitative RT-PCR; read-out: Anti-RS virus Activity. The assay is classed as cell-based. As for the experimental part:
A mixture of Vero cells (3.4×10^5 cells/mL) and human RS virus A2 strain (1.7×10^4 TCID50/mL) (EMEM medium supplemented with 10% FCS) was added to a 96-well plate at 50 μL/well, and the 10% FCS-supplemented EMEM medium adjusted to the desired final concentration of the compounds to be tested was added at 50 μL/well, followed by incubating the plate at 37° C. in the presence of 5% CO2 at 37° C. After 3 days of incubation, the supernatant was removed, the cells were washed with PBS(−), and the cell lysis buffer supplied with the SingleShot (registered trademark) Cell Lysis Kit (Bio-Rad) was added dropwise at 50 μL/well to lysis the cells thereby providing the cell lysate.
Human RS virus RNA copy number in the cell lysate was determined by quantitative RT-PCR using iTaq Universal SYBR Green One-Step Kit (Bio-Rad). Specifically, primers targeting human RS virus N gene (Rameix-Welti et al, Nat Commun5: 5104, 2014. doi: 10.1038/ncomms6104) was used to prepare the reaction solution according to the instructions provided with the kit, and a 96-well PikoReal Real-Time PCR System (TCR0096, Thermo Fisher Scientific) was used to detect PCR reaction and signal assay.
The copy number was calculated by the relative method using the comparative Ct method using compound-free virus-infected cells as controls.
With `O=C(c1ccc2cc(C(=O)N3C[C@H](O)C[C@H]3c3nc(CCCc4ccccc4)no3)ccc2c1)N1C[C@H](O)C[C@H]1c1nc(CCCc2ccccc2)no1` [Compound 4-6, Naphthalene-2,6-diylbis(((2S,4R)-4-hydroxy-2-(3-(3-phenylpropyl)-1,2,4-oxadiazol-5-yl)pyrrolidin-1-yl)methanone)], the IC50 was over 50 µM.
As for `CS(=O)(=O)N1C[C@H](O)C[C@H]1c1nc(CCCc2ccccc2)no1` [Compound 3C, 3-(3-phenylpropyl)-5-[(2S,4R)-4-hydroxy-1-methanesulfonylpyrrolidin-2-yl]-1,2,4-oxadiazole], the IC50 was over 50 µM.
In the case of `O=S(=O)(c1ccccc1)N1C[C@H](O)C[C@H]1c1nc(CCCc2ccccc2)no1` [Compound 3D, 3-(3-phenylpropyl)-5-[(2S,4R)-1-benzenesulfonyl-4-hydroxypyrrolidin-2-yl]-1,2,4-oxadiazole], the IC50 was over 50 µM.
Take `O=S(=O)(Cc1ccccc1)N1C[C@H](O)C[C@H]1c1nc(CCCc2ccccc2)no1` [Compound 3E, 3-(3-phenylpropyl)-5-[(2S,4R)-1-benzylsulfonyl-4-hydroxypyrrolidin-2-yl]-1,2,4-oxadiazole]: the IC50 was 10 to 50 µM.

The assay is the same for the next values; noted with them: 72 h; Vero cells infected with human RS virus A2 strain, 3 days of incubation, RS virus RNA copy number by quantitative RT-PCR; read-out: Anti-RS virus Activity.
`CC(C)CS(=O)(=O)N1CC2(CC2)C[C@H]1c1nc(CCCc2ccccc2)no1` [Compound 5A, 3-(3-phenylpropyl)-5-{(6S)-5-isobutylsulfonyl-5-azaspiro[2.4]hept-6-yl}-1,2,4-oxadiazole]: the IC50 was under 10 µM.
Turning to `CC(C)CS(=O)(=O)N1CCC[C@H]1c1nc(CNC(=O)c2cccc3ccccc23)no1` [Compound 11A, 3-[(1-naphthoylamino)methyl]-5-[(2S)-1-isobutylsulfonylpyrrolidin-2-yl]-1,2,4-oxadiazole], the IC50 is under 10 µM.
As to `CC(C)(C)OC(=O)N1CC(CS(=O)(=O)N2CC(CC3CCC3)CC2c2nc(CCCc3ccccc3)no2)C1` (stereo not shown) [Compound 6AM, tert-buthyl 3-(((4-(cyclobuthylmethyl)-2-(3-(3-phenylpropyl)-1,2,4-oxadiazole-5-yl)pyrrolidin-1-yl)sulfonyl)methyl)azetidin-1-carboxylate], the IC50 was under 10 µM.
For `CC(C)(C)OC(=O)N1C[C@H]2CC[C@]1(c1nc(CCc3ccncc3)no1)CC2` [Compound 13-1, Tert-butyl (1s,4s)-1-(3-(2-(pyridin-4-yl)ethyl)-1,2,4-oxadiazol-5-yl)-2-azabicyclo[2.2.2]octane-2-carboxylate], the IC50 lay within 10 to 50 µM.
As for `O=S(=O)(N1CCOCC1)N1C[C@H](c2ccccc2)C[C@H]1c1nc(CCCc2ccccc2)no1` [Compound 7AE, 4-(((2S,4S)-4-phenyl2-(3-(3-phenylpropyl)-1,2,4-oxadiazole-5-yl)pyrrolidin-1-yl)sulfonyl) morpholine], the IC50 fell in the range of 10 to 50 µM.
Regarding `CC(C)(C)OC(=O)N1CCC(CS(=O)(=O)N2CC3(CC3)C[C@H]2c2nc(CCCc3ccccc3)no2)CC1` [Compound 5AN, tert-buthyl (S)-4-(((6-(3-(3-phenylpropyl)-1,2,4-oxadiazole-5-yl)-5-azaspiro[2.4]heptan-5-yl)sulfonyl)methyl)piperidin-1-carboxylate], the IC50 was under 10 µM.
For the molecule `CC(C)(C)OC(=O)N1C[C@H](c2ccccc2)C[C@H]1c1nnc(CCCc2ccccc2)[nH]1` [Compound 19-1, Tert-butyl (2S,4S)-4-phenyl-2-(5-(3-phenylpropyl)-4H-1,2,4-triazol-3-yl)pyrrolidine-1-carboxylate], the IC50 was under 10 µM.
`O=S(=O)(c1ccc(F)cc1)N1CCC[C@H]1c1cn(Cc2ccccc2)nn1` [Compound 39AJ, (S)-1-Benzyl-4-(1-((4-fluorophenyl)sulfonyl)pyrrolidin-2-yl)-1H-1,2,3-triazole]: the IC50 was under 10 µM.
Same read-out and setting: the figure for `CC(C)(C)S(=O)(=O)N1CCCC[C@H]1c1nc(CCCc2ccccc2)no1` [Compound 2X, (S)-5-(1-(tert-butylsulfonyl)piperidin-2-yl)-3-(3-phenylpropyl)-1,2,4-oxadiazole] is under 10 µM; for `O=S(=O)(C1CCCCC1)N1CCCCC1c1ncc(-c2ccccc2)[nH]1` (stereo not shown) [Compound 40B] it is 10 to 50 µM; for `CC(C)(C)OC(=O)N1C[C@H](c2ccccc2)C[C@H]1c1nc(CCCc2ccccc2)no1` [Compound 7-1, 3-(3-phenylpropyl)-5-[(2S,4S)-1-tert-butoxycarbonyl-4-phenylpyrrolidin-2-yl]-1,2,4-oxadiazole] it is under 10 µM.
Take `CC(C)OC(=O)N1CCC[C@H]1c1nc(CCCc2ccccc2)no1` [Compound 1L, Isopropyl (S)-2-(3-(3-phenylpropyl)-1,2,4-oxadiazol-5-yl) pyrrolidine-1-carboxylate]: the IC50 was in the range of 10 to 50 µM.
Turning to `O=S(=O)(N1CCCCC1)N1[C@@H]2CC[C@@H](C2)[C@H]1c1nnc(CCc2ccncc2)[nH]1` [Compound 25AD, (1R,3S,4S)-2-(piperidine-1-ylsulfonyl)-3-(5-(2-(pyridin-4-yl)ethyl)-4H-1,2,4-triazol-3-yl)-2-azabicyclo[2.2.1]heptane], the IC50 lay within 10 to 50 µM.
On to `CC(C)(C)OC(=O)N1C[C@H](c2ccccc2)C[C@H]1c1nc(CCCCCc2ccccc2)no1` [Compound C5-7-1, Tert-butyl (2S,4S)-4-phenyl-2-(3-(5-phenylpentyl)-1,2,4-oxadiazol-5-yl)pyrrolidine-1-carboxylate], for which the IC50 was under 10 µM.
Turning to `CCOC(=O)C1CCN(S(=O)(=O)N2C[C@H](c3ccccc3)C[C@H]2c2nc(CCCc3ccccc3)no2)CC1` [Compound 7AC, ethyl 1-(((2S,4S)-4-phenyl2-(3-(3-phenylpropyl)-1,2,4-oxadiazole-5-yl)pyrrolidin-1-yl)sulfonyl)piperidin-4-carboxylate], the IC50 was in the range of 10 to 50 µM.
Turning to `CC(=O)N1CCCC[C@H]1c1nc(CCCc2ccccc2)no1` [Compound 2R], the IC50 lay within 10 to 50 µM.
Turning to `O=S(=O)(C1CCCCC1)N1CC2(CC2)C[C@H]1c1nc(CCCc2ccccc2)no1` [Compound 5B, 3-(3-phenylpropyl)-5-{(6S)-5-cyclohexylsulfonyl-5-azaspiro[2.4]hept-6-yl}-1,2,4-oxadiazole], the IC50 was under 10 µM.
`CCOC(=O)C1CCN(S(=O)(=O)N2CCCC[C@H]2c2nc(CCCc3ccccc3)no2)CC1` [Compound 2AC, Ethyl (S)-1-((2-(3-(3-phenylpropyl)-1,2,4-oxadiazol-5-yl)piperidin-1-yl)sulfonyl)piperidine-4-carboxylate]: the IC50 lay within 10 to 50 µM.
In the case of `CC(C)(C)OC(=O)N1C[C@H](c2ccccc2)C[C@H]1c1nc(Cc2ccccc2)no1` [Compound C1-7-1, Tert-butyl (2S,4S)-2-(3-benzyl-1,2,4-oxadiazol-5-yl)-4-phenylpyrrolidine-1-carboxylate], the IC50 is under 10 µM.
As for `O=C(C1CCCCC1)N1CCCC[C@H]1c1nc(CCCc2ccccc2)no1` [Compound 2Y, (S)-cyclohexyl(2-(3-(3-phenylpropyl)-1,2,4-oxadiazol-5-yl)piperidin-1-yl)methanone], the IC50 was under 10 µM.
Turning to `CC(C)(C)OC(=O)N1CC(CS(=O)(=O)N2C[C@H](c3ccccc3)C[C@H]2c2nc(CCCc3ccccc3)no2)C1` [Compound 7AM, tert-buthyl 3-((((2S,4S)-4-phenyl2-(3-(3-phenylpropyl)-1,2,4-oxadiazole-5-yl)pyrrolidin-1-yl)sulfonyl)methyl)azetidin-1-carboxylate], the IC50 was under 10 µM.
Take `CC(C)CCN1CCCC[C@H]1c1nc(CCCc2ccccc2)no1` [Compound 2T, (S)-5-(1-isopentylpiperidin-2-yl)-3-(3-phenylpropyl)-1,2,4-oxadiazole]: the IC50 lay within 10 to 50 µM.
The same measure, in the same setting: the figure for `CC(C)CS(=O)(=O)N1CCC[C@H]1c1nc(CCc2ccccc2)no1` [Compound 9A, 3-(2-phenylethyl)-5-[(2S)-1-isobutylsulfonylpyrrolidin-2-yl]-1,2,4-oxadiazole] is over 50 µM; for `CN(C)c1ccc(S(=O)(=O)N2CC(CC3CCC3)CC2c2nc(CCCc3ccccc3)no2)cc1` (stereo not shown) [Compound 6AK, 4-((4-(cyclobuthylmethyl)-2-(3-(3-phenylpropyl)-1,2,4-oxadiazole-5-yl)pyrrolidin-1-yl)sulfonyl)-N,N-dimethylaniline] it is under 10 µM.
Same read-out and setting: the figure for `CC(C)CC(=O)N1CCC[C@H]1c1nc(CCCc2ccccc2)no1` [Compound 1Q, (S)-3-Methyl-1-(2-(3-(3-phenylpropyl)-1,2,4-oxadiazol-5-yl)pyrrolidin-1-yl) butan-1-one] is under 10 µM; for `O=C(NCc1noc([C@@H]2CCCCN2S(=O)(=O)C2CCCCC2)n1)c1ccc2c(c1)OCO2` [Compound 21B, (S)—N-((5-(1-(cyclohexylsulfonyl)piperidin-2-yl)-1,2,4-oxadiazol-3-yl)methyl)benzo[d][1,3]dioxol-5-carboxamide] it is over 50 µM.

The assay is the same for the next values; noted with them: Vero, 72 h, read-out: Anti-RS virus Activity.
Consider `S=C(Nc1ccccc1)N1C[C@H](c2ccccc2)C[C@H]1c1nc(CCCc2ccccc2)no1` [Compound 7AQ, (2S,4S)—N,4-di phenyl-2-(3-(3-phenylpropyl)-1,2,4-oxadiazol-5-yl) pyrrolidine-1-carbothioamide], for which the IC50 lay in the range of 10 to 50 µM.
